Entries after “also recorded” stand apart in the source; their conditions may differ.
Experiments:
[1] = tested on: Rat Hypercalcemia Induced by PTHrp(1-34); assay: Rat hypercalcemia induced by PTHrp(1-34), subcutaneous administration; format: in vivo, Wistar rats; conditions: 40 mg/kg subcutaneously at the back; 2 h later PTHrp(1-34) 5 nmole/kg i.v.; blood 1 h after PTHrp; n = 5; PTHrp-only group 11.28 ± 0.08, untreated 10.68 ± 0.09
Excerpt: (§1) The active ingredient of the present invention normalizes the blood calcium concentration in rat hypercalcemia induced by PTHrp(1-34). PTHrp (parathyroid hormone-related protein) is a protein identified as the factor inducing hypercalcemia in humans. The fragment comprised of the 1 to 34th amino acid residues, that is, PTHrp(1-34), is the active type. The PTHrp(1-34) promotes bone resorption in vitro and induces hypercalcemia if administered to rats.
(§2) Using this model, the compound of the present invention was administered to Wistar rats, then PTHrp(1-34) was administered and the blood calcium concentration was measured after one hour after administration. […] That is, the compound of the present invention suppresses hypercalcemia induced by PTHrp(1-34), so is useful as a prophylactic or therapeutic agent for bone diseases.
(§3) In the same way as Example 7, to Wistar rats (5 weeks old, male, 90 to 110 g, 5 animals in each group), 40 mg/kg body weight of the compounds listed in Table 1 were administered subcutaneously at the back. Two hours later, 5 nmole/kg of PTHrp(1-34) was intravenously injected. One hour after the administration of PTHrp(1-34), a blood sample was collected from each animal and the blood calcium concentration was measured by the octocresolphthalein complexone method.

[2] = tested on: Rat Hypercalcemia Induced by PTHrp(1-34); assay: Rat hypercalcemia induced by PTHrp(1-34), oral administration; format: in vivo, Wistar rats
Excerpt: as §1, §2
as §3, with “To” for “In the same way as Example 7, to”, “orally. Four” for “subcutaneously at the back. Two”
Note that for reference, a similar evaluation was made of L-trans-epoxysuccinyl-L-leucineamide (e-guanide)-butane (E-64) Japanese Unexamined Patent Publication (Kokai) No. 63-284127 and the Z-Phe-Ala-CH2 F described in Japanese Examined Patent Publication (Kokoku) No. 4-1737.

rats = assay: Acute toxicity LD50 after oral administration to rats; format: in vivo; conditions: in 20 hours
Description: The compound of the present invention is a low molecular weight dipeptide derivative, so the toxicity is low. For example, the acute toxicity LD50 of the compound 1 shown in Table 1 in 20 hours after oral administration to rats is over 1 g/kg.

[3] = 40 mg/kg orally; 4 h later PTHrp(1-34) 5 nmole/kg i.v.; blood 1 h after PTHrp; n = 5; PTHrp-only group 11.87 ± 0.14, untreated 11.42 ± 0.14

Row | SMILES | Ca conc. ± standard error (average blood calcium concentration) [1] | Ca conc. ± standard error (average blood calcium concentration) [2, 3] | effect on rise in blood calcium concentration (in words) ([2]; oral administration, 40 mg/kg, vs group treated with PTHrp(1-34) only) | acute toxicity LD50 (rats) | effect on rise in blood calcium concentration (in words) ([2]; oral administration, 40 mg/kg, vs group treated with PTHrp(1-34) only; 40 mg/kg)
1 | CC(C)C[C@H](NC(=O)[C@H]1O[C@@H]1C(=O)O)C(=O)NCCCCN=C(N)N (relative stereo) [Example E-64, L-trans-epoxysuccinyl-L-leucineamide (e-guanide)-butane] | 10.20 ± 0.09 mg/dL | 11.09 ± 0.14 mg/dL | significantly suppressed the rise in the blood calcium concentration | – | –
2 | CCCCC(NC(=O)C(CC(C)C)NC(C)=O)C(=O)CF (stereo not drawn) [Ac-Leu-Nle-CH2 F, 3-(N-acetyl-leucylamide)-1-fluoro-2-heptanone] | 10.13 ± 0.11 mg/dL | 10.49 ± 0.09 mg/dL | – | – | –
3 | CCCCC(NC(=O)C(CC(C)C)NC(=O)OCc1ccccc1)C(=O)CF (stereo not drawn) [Z-Leu-Nle-CH2 F, 3-(N-benzyloxycarbonyl-leucylamide)-1-fluoro-2-heptanone] | – | 11.09 ± 0.14 mg/dL | – | over 1 g/kg | –
4 | CC(NC(=O)C(Cc1ccccc1)NC(=O)OCc1ccccc1)C(=O)CF (stereo not drawn) [Z-Phe-Ala-CH2 F, 3-(N-benzyloxycarbonylphenylalanylamide)-1-fluoro-2-butanone] | – | 12.02 ± 0.20 mg/dL | – | – | did not exhibit an activity; also recorded: did not exhibit any action of normalizing the calcium concentration
